PMC6437697 (Journal of Medicinal Chemistry, 2019)
pIC50: −log10 of the molar value.

Legend:
[1] = test system: HEK293 cells stably expressing an XBP1u-luciferase mRNA reporter; conditions: read-out: HEK293 cytotoxicity (CellTitreBlue) IC50
[2] = test system: IRE1α-dependent splicing of XBP1u-luciferase mRNA reporter in HEK293 cells; test: XBP1 luciferase fusion mRNA splicing reporter in HEK293 cells; type: cell-based, human; conditions: HEK293TN; read-out: XBP1 reporter cleavage in HEK293TN IC50
[3] = target: recombinant G547 IRE1α KEN domain (Homo sapiens, UniProt O75460); test: IRE1α S724 autophosphorylation assay (DELFIA); type: biochemical; conditions: read-out: IRE1a autophosphorylation inhibition (DELFIA IC50 nM)
Chain of recombinant G547 IRE1α KEN domain (O75460 547-977): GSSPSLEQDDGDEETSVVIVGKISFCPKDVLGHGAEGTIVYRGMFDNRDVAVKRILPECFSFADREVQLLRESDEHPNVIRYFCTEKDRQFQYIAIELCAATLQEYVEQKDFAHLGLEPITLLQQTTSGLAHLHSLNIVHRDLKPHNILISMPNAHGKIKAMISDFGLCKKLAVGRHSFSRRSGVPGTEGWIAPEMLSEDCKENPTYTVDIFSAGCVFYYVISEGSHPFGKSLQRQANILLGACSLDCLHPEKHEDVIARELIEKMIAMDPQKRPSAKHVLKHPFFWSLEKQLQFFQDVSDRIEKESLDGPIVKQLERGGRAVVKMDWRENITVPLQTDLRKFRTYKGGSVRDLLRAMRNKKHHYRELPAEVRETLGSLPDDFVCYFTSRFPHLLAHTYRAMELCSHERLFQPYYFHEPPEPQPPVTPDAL

[4] = target: recombinant dephosphorylated G547 IRE1α KEN domain (Homo sapiens, UniProt O75460); test: IRE1α ATP-site binding assay (LanthaScreen tracer displacement); conditions: read-out: IRE1a ATP site binding (LanthaScreen IC50 nM)
Chain of recombinant dephosphorylated G547 IRE1α KEN domain (O75460 547-977): as above

Row | Compound | pIC50 [1] | pIC50 [2] | IC50 [3] [nM] | IC50 [4] [nM]
1 | Fc1cc(F)cc(Cn2cc(-c3ccnc4[nH]cnc34)cn2)c1 [Control A, 7-(1-(3,5-difluorobenzyl)-1H-pyrazol-4-yl)-3H-imidazo[4,5-b]pyridine, reference compound] | < 4.30 | 5.21 | 3110 | 3280
2 | CC(C)Nc1cc(Cl)nn2c(-c3ccc4[nH]ncc4c3)cnc12 [compound 33] |  |  | 276 | 736
